Results reported in patent US20250205342A1, “IRAK DEGRADERS AND USES THEREOF” (Kymera Therapeutics, Inc., priority 2022, published 2025).

Tests used:
[1] = target: T1, IRAK4 (Homo sapiens, UniProt Q9NWZ3); experiment: hPBMC IRAK4 degradation flow assay (monocytes); assay type: cell-based; design: endogenous in cells; host or cells: human PBMCs (monocytes, CD14 positive gate); settings: CD14 positive monocytes, 20 h, read-out: hPBMC monocyte DC50 at 20 h
T1 sequence (Q9NWZ3 1-460): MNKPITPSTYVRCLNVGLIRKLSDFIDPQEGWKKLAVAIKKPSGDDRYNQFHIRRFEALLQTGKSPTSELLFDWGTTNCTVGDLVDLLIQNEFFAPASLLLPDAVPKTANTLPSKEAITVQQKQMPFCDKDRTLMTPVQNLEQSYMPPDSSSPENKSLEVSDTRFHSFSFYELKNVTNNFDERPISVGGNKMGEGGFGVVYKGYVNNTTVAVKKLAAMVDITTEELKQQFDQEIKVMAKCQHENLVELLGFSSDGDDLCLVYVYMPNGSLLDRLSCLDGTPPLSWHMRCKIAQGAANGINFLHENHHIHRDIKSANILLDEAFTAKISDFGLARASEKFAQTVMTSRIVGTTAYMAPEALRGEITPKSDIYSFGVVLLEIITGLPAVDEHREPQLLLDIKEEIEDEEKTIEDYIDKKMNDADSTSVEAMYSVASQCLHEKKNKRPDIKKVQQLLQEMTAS
Method in brief: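 Thawed human PBMCs treated 20 h (or 4 h) at 37° C. with 10-point 5-fold compound dilutions, 0.1% DMSO, then fixed, methanol-permeabilized and stained for IRAK4 and lineage markers by flow, with monocytes gated CD14+. IRAK4 MFI normalized to DMSO and 10 µM control; DC50 and max degradation from 4-parameter logistic fit.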

[2] = target: T1, IRAK4; experiment: IRAK4 degradation in OCI-LY10 (MSD, Meso Scale Discovery); assay type: cell-based; design: endogenous in cells; host or cells: OCI-LY10; settings: OCI-LY10 cells, 24 h
Method in brief: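 OCI-LY10 cells (300,000/well) were treated with an 8-point 1:3 series (top 1 to 10 μM) for 4 to 24 h at 37 °C. IRAK4 in RIPA lysates was quantified by MSD sandwich immunoassay with two anti-IRAK4 antibodies. DC50 was fitted with a three-parameter logistic equation.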

DC50 [1]	DC50 [2]	SMILES
> 10 µM	> 10 µM	CCOC(=O)Cn1cc(NC(=O)c2cc(CCCCCCNC[C@H]3CC[C@H](n4cc(NC(=O)c5cnn6ccc(N7C[C@H]8C[C@@H]7CO8)nc56)c(C(F)F)n4)CC3)cc(-c3cccnc3)c2)ccc1=O [Compound I-98]
> 10 µM	> 10 µM	CCOC(=O)Cn1cc(NC(=O)c2cccc(-c3cncc(CCCCCCNC[C@H]4CC[C@H](n5cc(NC(=O)c6cnn7ccc(N8C[C@H]9C[C@@H]8CO9)nc67)c(C(F)F)n5)CC4)c3)c2)ccc1=O [Compound I-99]
